Experimental data taken from publication PMC8318231, “Rate-of-Kill (RoK) assays to triage large compound sets for Chagas disease drug discovery: Application to GSK Chagas Box” (PLoS Neglected Tropical Diseases, 2021).

How the values were obtained:
[1] = test system: T. cruzi intracellular amastigotes in H9c2 cells; test: Rate-of-Kill (RoK) high-content imaging assay, amastigotes per cell (AM/CELL) and curve descriptors; assay type: cell-based, Trypanosoma cruzi; parameters: key to ME_24h / ME_48h / ME_72h: % reduction in parasite burden (cidal response); t50pct_MCC50 / t50pct_Cmax: unit not given here; settings: for ME_24h: 24h; for ME_48h: 48h; for ME_72h: 72h; for AM/CELL NORM: sheet figure 4 A; for t50%_Cmax / tlag_Cmax / t50pct_Cmax: at Cmax; for ME_24h (%): maximum effect at 24 h; for ME_24h (%) / ME_48h (%) / ME_72h (%): RoK assay; for ME_48h (%): maximum effect at 48 h; for ME_72h (%): maximum effect at 72 h; for ME 24h (maximum effect at 24 hours, intracellular amastigotes): maximum percentage of parasite burden reduction reached by any concentration
Outline: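 Readouts at each time point are amastigotes per cell and host nuclei count (cytotoxicity), from DRAQ5 high-content imaging. Infection: trypomastigotes on H9c2 at MOI 8 for 18 h. Dosing was 5 μM single point or 11 points, 1/3 steps from 50 μM. Effect scaled between 4 h infected and uninfected controls.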

[2] = test system: T. cruzi Tulahuen trypomastigotes; test: T. cruzi trypomastigote assay (Cell Titer-Glo viability, ATP luminescence); assay type: cell-based, Trypanosoma cruzi; settings: for Trypomastigotes pIC50 48 hours: 48 hours incubation; for Trypomastigotes pIC50 48 hours / Trypomastigotes pIC50 72 hours: pIC50 = -log10 IC50 in molar units; for Trypomastigotes pIC50 72 hours: 72 hours incubation; for 72 pIC50: 72 h
Outline: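 Compounds were tested in dose response or once at a final 5 μM against 5 × 10^4 trypomastigotes per well (DMEM, 2% FBS), collected on days 5–8 from LLC-MK2 infected cultures. ATP luminescence via CellTiter-Glo reports live parasites; DMSO defines 0% and cell-free wells 100% effect.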

| SMILES | ME_24h ([1]; figure 5) | ME_48h ([1]; figure 5) | ME_72h ([1]; figure 5) | MCCE ([1]; RoK curve descriptor) | AM/CELL NORM ([1]; Time 4) | AM/CELL NORM ([1]; Time 24) | AM/CELL NORM ([1]; Time 48) | AM/CELL NORM ([1]; Time 72) | tlag_Cmax [1] | t50pct_Cmax ([1]; figure 5) | tlag_Cmax ([1]; figure 5) | t50pct_MCC50 ([1]; at MCC50, figure 5) | tlag_MCC50 ([1]; at MCC50, figure 5) | MCCE ([1]; figure 5) | ME_24h (%) [1] | ME_48h (%) [1] | ME_72h (%) [1] | ME 24h (maximum effect at 24 hours, intracellular amastigotes) [1] | Trypomastigotes pIC50 48 hours [2] | Trypomastigotes pIC50 72 hours [2] | also measured |
| --- | --- | --- | --- | --- | --- | --- | --- | --- | --- | --- | --- | --- | --- | --- | --- | --- | --- | --- | --- | --- | --- |
| COc1ccc(S(=O)(=O)NCc2ccc(-c3ccc(CN(C)CCO)cc3)cc2)cc1.O=C(O)C(F)(F)F [TCMDC-143549] | 31.0393 | 40.4277 | 76.5332 | 5.6 µM | -7.714 | 31.0393 | 40.4277 | 76.5332 | 4.0 h | 72 | 4 | 72 | 24 | 5.556 | 31.0% | 40.4% | 76.5% | 31.0393% | 4.6 | < 4.3 | MCC50 ([1]; RoK curve descriptor): 16.7 µM; t50%_Cmax [1]: 72.0 h; t50%_MCC50 ([1]; at MCC50): 72.0 h; tlag_MCC50 ([1]; at MCC50): 24.0 h; MCC50 ([1]; figure 5, in µM): 16.6667 |
| CCCN1CCN(Cc2ccc(S(=O)(=O)Nc3cccc(C)c3)cc2)CC1.O=C(O)C(F)(F)F.O=C(O)C(F)(F)F [TCMDC-143550] | -35.0895 | 33.2327 | 65.1227 | 0.6 µM | -2.745 | -35.0895 | 33.2327 | 54.4775 | 24.0 h | 72 | 24 | 72 | 24 | 0.6173 | -35.1% | 33.2% | 65.1% | -35.0895% | < 4.3 | < 4.3 | MCC50 ([1]; RoK curve descriptor): 1.9 µM; t50%_Cmax [1]: 72.0 h; t50%_MCC50 ([1]; at MCC50): 72.0 h; tlag_MCC50 ([1]; at MCC50): 24.0 h; MCC50 ([1]; figure 5, in µM): 1.852; 72 pIC50 (trypomastigotes, raw data of Fig 1D) ([2]; 72 hours, plotted values, censored values given without sign): < 4.3; 48 pIC50 ([2]; trypomastigote assay, 48 h, figure 1A): < 4.3; 72 pIC50 ([2]; trypomastigote assay, figure 1A): < 4.3; 72 pIC50 ([2]; trypomastigote assay, figure 1B): < 4.3 |
| O=C(CSc1ccc(-c2ccccn2)nn1)Nc1ccc(Cl)cc1 [TCMDC-143552] | -18.5463 | -23.0005 | 85.8726 | 5.6 µM | 7.37 | -202.586 | -606.539 | -482.613 | 48.0 h | 72 | 48 | 72 | 48 | 5.556 | -18.6% | -23.0% | 85.9% | -18.5463% | 5.4 | 5.5 | MCC50 ([1]; RoK curve descriptor): 16.7 µM; t50%_MCC50 ([1]; at MCC50): 72.0 h; tlag_MCC50 ([1]; at MCC50): 48.0 h; MCC50 ([1]; figure 5, in µM): 16.6667 |
| c1ccc2c(CCOc3nccnc3-c3ccncc3)c[nH]c2c1 [TCMDC-143562] | -24.9705 | 30.5632 | 12.8696 | 0.2 µM | -8.107 | -35.3498 | 30.5632 | -2.217 | 24.0 h | 72 | 24 | 72 | 72 | 0.2058 | -25.0% | 30.6% | 12.9% | -24.9705% | 4.4 | 4.5 | MCC50 ([1]; figure 5): 50 µM |
| O=C(Nc1ccc(Br)c(Cl)c1)Nc1ccc2c(c1)OCO2 [TCMDC-143588] | 4.143 | 11.8076 | -0.7061 | 5.6 µM | 16.6619 | 4.143 | 11.8076 | -47.3133 | 24.0 h | 72 | 24 | 72 | 72 | 5.556 | 4.1% | 11.8% | -0.7% | 4.143% | 5.5 | < 4.3 | MCC50 ([1]; figure 5): 50 µM |
| COc1cccc(C(=O)[C@H]2C[C@@H]2CN(Cc2cccnc2)Cc2cccnc2)c1 [TCMDC-143593] | -243.773 | -91.7284 | 36.534 | 0.02 µM | -1.514 | -270.363 | -91.7284 | -0.04888 | 24.0 h | 72 | 24 | 72 | 72 | 0.02286 | -243.8% | -91.7% | 36.5% | -243.773% | 5.2 | < 4.3 | MCC50 ([1]; figure 5): 50 µM |
| Clc1ccc(Sc2cnccc2N2CCOCC2)cc1 [TCMDC-143602] | -12.5205 | -29.081 | 15.6088 | 0.2 µM | 3.934 | -12.5205 | -29.081 | -95.1907 | 72.0 h | 72 | 72 | 72 | 72 | 0.2058 | -12.5% | -29.1% | 15.6% | -12.5205% | 4.5 | < 4.3 | MCC50 ([1]; figure 5): 50 µM |
